Key:
Splenocytes = assay: Immunogenicity of HSP90 peptides in immunized FVB mice, IFN-γ ELISPOT of splenocytes; format: in vivo; conditions: mice immunized s.c. 100 μg single peptide in CFA/IFA, 3 times; compared with control
Description: To test immunogenicity of the selected peptides in murine model, six to eight-week-old female FVB mice were obtained from Koatech (Gyeonggi, Korea). The mice were immunized subcutaneous (s.c) injection with 100 μg of respective HSP90 peptides of SEQ ID NOs: 1, 2, and 5-14 or Phosphate Buffered Saline (PBS) as a mixture in complete Freund's adjuvant (CFA; F5881, Sigma, MO, USA)/incomplete Freund's adjuvant (IFA; F5506, Sigma). Three immunizations were given 10 days apart. Ten days after the third vaccination, spleen and serum was harvested from each mouse.
(§1) Color development was stopped by washing under tap water.

human PBMCs = assay: IFN-γ and IL-10 ELISPOT screen of HSP90 peptides in human PBMCs; format: cell-based; conditions: human PBMCs from 10 volunteer donors
Description: Serum samples were obtained after written consent, from 25 HER2 positive breast cancer patient, and 25 volunteer donors at the Korea University Anam Hospital (Approval number: 2016AN0090). All sera were aliquoted and stored at −80° C. For human T cell response studies, peripheral blood mononuclear cells (PBMC) were obtained after informed consent, from 10 breast cancer patients, and 10 volunteer donors. Cells were ficolled and cryopreserved as previously described (Guy C T, et al. (1992) Expression of the neu protooncogene in the mammary epithelium of transgenic mice induces metastatic disease. Proceedings of the National Academy of Sciences of the United States of America 89(22):10578-10582). PBMC samples were obtained at the General Clinical Research Center Facility at the University of Washington (Approval number: NIH MO1-RR-00037)
as §1
This study profiled the peptide sequences with the highest recognition of HSP90 peptide and MHC class II peptide binding by a scoring system combining multiple MHC class II peptide binding algorithms. FIG. 2 depicts the entire HSP90 peptide sequence and identified immunogenic “hotspots”. Among them, 11 peptides with the highest scores in the binding affinity scoring system were selected. The selected 11 15-mer HSP90 peptides (Table 2) were screened for T helper (Th)1 or Th2 immunity in human PBMCs from 10 volunteer donors by IFN-γ ELISPOT assay using as a representative Th1 cytokine, IFN-γ, and a Th2 cytokine, Interleukine-10 (IL-10).

[1] = test system: mouse mammary carcinoma (MMC) cells; assay: Survival analysis of HSP90 peptides and STING agonist in MMC tumor-bearing mice; format: in vivo, neu-transgenic mice; conditions: monitored until 90 days after tumor implantation; tumor >2,000 mm^3 considered dead
Description: (§2) To evaluate effects of the combination therapeutic with HSP90 peptides and STING agonist (tlrl-dmx, InvivoGen, CA, USA), MMC cells (5×10^5) were implanted with s.c in neu-transgenic mice. […] Three immunizations were given 10 days apart. 15 days after the third vaccination, spleen, tumor and serum was harvested in mice. To evaluate survival analysis of the combination effects with HSP90 peptides and STING agonist, mice were monitored two time per week until 90 days following tumor implantation and when tumor reached a size greater than 2,000 mm^3, mice were considered dead.

[2] = test system: mouse mammary carcinoma (MMC) cells; assay: Combination of HSP90 peptides and STING agonist in MMC tumor-bearing mice; format: in vivo, neu-transgenic mice
Description: as §2
The levels of HSP90 and HER2 ECD were evaluated by ELISA in the serum of HER2 positive breast cancer patients and mice. Briefly, HSP90 (ADI-SPP-776, Enzo Life Science, NY, USA) and HER2 ECD (YCP5341, Speed Biosystems) recombinant proteins were coated a 96-well microplate with 50 μL per well of the diluted concentration of 20 μg/mL in carbonate buffer. Standard was coated with IgG dilution of human and mouse to serial concentration (0.64˜0.005 μg/mL). […] Samples (200 μL) were added to the wells and incubated overnight at 4° C. […] The optical density of each well at 450 nm was determined using an IMARKTM™ microplate reader (Bio-Rad Laboratories, Hercules, CA, USA). […]

LR-MMC cells [3] = assay: Cell viability MTT assay, lapatinib-resistant MMC cells; format: cell-based, mouse
Description: (§3) Neu-transgenic mice [strain: FVB/N-Tg(MMTVneu)202Mul] were obtained from the Jackson Laboratory (Bar Harbor, ME). These mice harbor non-mutated, non-activated rat neu under the control of the mouse mammary tumor virus (MMTV) promoter/enhancer. The neu transgene is expressed at low levels in normal mammary epithelium, salivary gland, and lung. Until the age of eight month, 35% of female neu-transgenic mice spontaneously develop mammary carcinomas that display high neu-expression levels. Mouse mammary carcinoma (MMC) cell line was established from a spontaneous tumor in neu-transgenic mouse. MMC cells were maintained in RPMI-1640 medium (ThermoFisher scientific, Utah, USA) supplemented with 10% fetal bovine serum, 100 units/ml penicillin, […] streptomycin and 2 mM L-glutamine, and were incubated in a humidified 37° C. incubator with 5% CO2. Lapatinib was purchased from LC laboratories (L-4899, MA, USA). […]
(§4) Cells were seeded at a density of 1×10^5 cells in 6-well plates. […] Cell viability was quantitatively analysed using the 3-[4,5-dimethylthiazol-2-yl]-2,5-diphenyltetrazolium (MTT) assay. […] The absorbance of the converted MTT dye was measured at 540 nm using an IMARK™ microplate reader (Bio-Rad Laboratories). Cell viability was expressed as the relative percentage compared to untreated cells; experimental error was also calculated. […] The percent of cell survival was calculated using […] […]

LR-MMC cells [4] = assay: Lapatinib treatment of LR-MMC tumor-bearing mice; format: in vivo, neu-transgenic mice; conditions: lapatinib 75 mg/kg oral gavage 5 times weekly
Description: (§5) To establishment lapatinib-resistant mouse model, MMC and lapatinib-resistant MMC cells (1×106) were injected flank with s.c in neu-transgenic mice.

MMC cells [5] = assay: Lapatinib treatment of MMC tumor-bearing mice; format: in vivo, neu-transgenic mice; conditions: day 34, lapatinib 75 mg/kg oral gavage 5 times weekly
Description: as §5

MMC cells [6] = assay: Cell viability MTT assay, MMC cells; format: cell-based, mouse
Description: as §3, §4

LR-MMC cells [7] = conditions: per 10 high-power field, IHC

| Compound | antigen-specific T cell response (IFN-γ ELISPOT) (Splenocytes) | Th1 and Th2 immune responses (IFN-γ and IL-10 ELISPOT) (human PBMCs) | further results |
| --- | --- | --- | --- |
| QSKILKVIRKNLVKK (HSP90 p527-541) [HSP90 15-mer peptide] | significantly higher | predominantly Th1 immune responses | – |
| TDTGEPMGRGTKVIL (HSP90 p296-310) [HSP90 15-mer peptide] | – | weak Th1 and Th2 immune responses | – |
| YSNKEIFLRELISNS (HSP90 p160-174) [HSP90 15-mer peptide] | significantly higher | weak Th1 and Th2 immune responses | – |
| QFGVGFYSAYLVAEK (HSP90 p255-269) [HSP90 15-mer peptide] | – | weak Th1 and Th2 immune responses | – |
| SELLRYYTSASGDEM (HSP90 p582-596) [HSP90 15-mer peptide] | – | weak Th1 and Th2 immune responses | – |
| Cc1ccc2c(=O)c3cccc(CC(=O)O)c3oc2c1C [STING agonist] | – | – | median survival [1]: 79 days; mean tumor volume (mean±SD) ([2]; day 35, treatment from tumor >100 mm^3, 3 times): 647±66 mm^3; expression levels of mouse HER2 ECD (ELISA) ([2]; serum): 89 µg/mL |
| SVKDLVILLYETALL (HSP90 p780-794) [HSP90 15-mer peptide] | – | weak Th1 and Th2 immune responses | – |
| CS(=O)(=O)CCNCc1ccc(-c2ccc3ncnc(Nc4ccc(OCc5cccc(F)c5)c(Cl)c4)c3c2)o1 [lapatinib] | – | – | apoptosis (LR-MMC cells [3]; LR-MMC cells compared with MMC cells): did not induce significant apoptosis; IC50 (LR-MMC cells [3]; Mus musculus, LR-MMC cells): 390 nM; mean tumor volume (mean±SD) (LR-MMC cells [4]): 1212±523 mm^3; mean tumor volume (mean±SD) (MMC cells [5]): 1711±397 mm^3; sensitivity after lapatinib treatment (MMC cells [6]; MMC cells): sensitive in a dose-dependent manner; IC50 (MMC cells [6]; Mus musculus, parent MMC cells): 76 nM; infiltrated CD8+ T cells in tumor (Mean median) (LR-MMC cells [7]): 6.6 counts |
| IVKKHSQFIGYPITL (HSP90 p328-342) [HSP90 15-mer peptide] | – | strong Th1 and Th2 immune responses | – |
| LYVRRVFIMDNCEEL (HSP90 p485-499) [HSP90 15-mer peptide] | significantly higher | predominantly Th1 immune responses | – |
| LYKDLQPFILLRLLM (HSP90 p109-123) [HSP90 15-mer peptide] | – | strong Th1 and Th2 immune responses | – |
| LEFRALLFVPRRAPF (HSP90 p457-471) [HSP90 15-mer peptide] | significantly higher | weak Th1 and Th2 immune responses | – |

Reference: patent US12427189B2, “Vaccine comprising epitope of heat shock protein, and use thereof” (ASTON SCI. CO., LTD., priority 2018, dated 2025)
